Assay results taken from PMC7761830, “Structure-Based Virtual Screening of Ultra-Large Library Yields Potent Antagonists for a Lipid GPCR” (Biomolecules, 2020).

What was measured:
[1] = target: T1, wild-type CysLT1R (Homo sapiens, UniProt Q9Y271); assay: IP1 production assay, antagonist mode, co-stimulation with EC80 LTD4; assay type: cell-based
T1 construct: expressed in transfected cells; host or cells: HEK293 (ATCC CRL-1573), transient transfection with Lipofectamine 3000
T1 sequence (Q9Y271 1-337): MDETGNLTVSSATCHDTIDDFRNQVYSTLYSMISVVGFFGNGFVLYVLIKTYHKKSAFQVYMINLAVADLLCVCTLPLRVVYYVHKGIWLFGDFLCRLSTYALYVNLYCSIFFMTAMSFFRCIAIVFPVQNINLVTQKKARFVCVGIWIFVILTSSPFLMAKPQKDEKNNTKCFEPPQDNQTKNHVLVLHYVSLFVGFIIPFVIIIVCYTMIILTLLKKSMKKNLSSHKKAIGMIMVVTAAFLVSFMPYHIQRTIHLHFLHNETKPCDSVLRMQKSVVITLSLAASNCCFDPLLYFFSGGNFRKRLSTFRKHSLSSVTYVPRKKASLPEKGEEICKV
Experimental: (§1) For this assay, we used the Cisbio IP-One kit as previously described. […] At 48 h post-transfection, the media was removed and the cells were washed with fresh Hank’s Balanced Salt Solution (HBSS). […] After compound stimulation, the cells were incubated for 1 h at 37 °C and stimulated with IP1-D2 and Ab-Crypt reagents in Lysis Buffer. The cells were then incubated at room temperature for an additional hour. […] Normalized data were plotted using either the three-parameter or four-parameter EC50/IC50 fits of GraphPad Prism 8 (San Diego). […] Data represent the means ± SEM of at least three independent experiments performed in quadruplicate.

[2] = target: T2, wild-type CysLT2R (Homo sapiens, UniProt Q9NS75); assay: as above; assay type: cell-based; conditions: for inhibition at 30 µM: HEK293, compound 30 µM, LTD4 at EC80, HEK293, wild-type CysLT2R, read-out: inhibition of LTD4-induced IP1 production, single-concentration screen; for Emax: HEK293, read-out: CysLT2R (LTD4) % Max Inhibition ± SEM
T2 construct: expressed in transfected cells; host or cells: HEK293 (ATCC CRL-1573), transient transfection with Lipofectamine 3000
T2 sequence (Q9NS75 1-346): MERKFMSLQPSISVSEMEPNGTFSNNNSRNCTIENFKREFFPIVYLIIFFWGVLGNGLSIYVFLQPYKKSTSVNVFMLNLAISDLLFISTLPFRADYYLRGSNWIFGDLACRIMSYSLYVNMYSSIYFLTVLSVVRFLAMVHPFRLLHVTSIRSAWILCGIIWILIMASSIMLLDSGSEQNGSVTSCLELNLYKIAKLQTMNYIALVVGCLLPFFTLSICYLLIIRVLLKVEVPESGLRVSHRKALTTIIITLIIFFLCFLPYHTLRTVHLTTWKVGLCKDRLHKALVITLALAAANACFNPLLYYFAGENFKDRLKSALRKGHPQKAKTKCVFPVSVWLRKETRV
Experimental: as §1

Row | remaining activity at 30 µM [1] [%] | remaining activity at 30 µM [2] [%] | inhibition at 30 µM ([1]; HEK293, compound 30 µM, LTD4 at EC80, HEK293, wild-type CysLT1R, read-out: inhibition of LTD4-induced IP1 production, single-concentration screen) [%] | Emax ([1]; HEK293, read-out: CysLT1R (LTD4) % Max Inhibition ± SEM) [%] | inhibition at 30 µM [2] [%] | Emax [2] [%] | SMILES
1 | 76.5 | 77.4 | – | – | – | – | O=C(Cc1ccc(S(=O)(=O)CCO)cc1)Nc1ccc(-c2nc3cccc(Cl)c3s2)cc1 [BRI-12452]
2 | 93.1 | 109 | – | – | – | – | O=C(O)CC(NC(=O)Cn1ncc2ccccc21)c1ccc(F)cc1 (stereo not shown) [BRI-12305]
3 | 68.3 | 74.6 | – | – | – | – | O=C(O)CCc1cccc(NC(=O)c2ccc(-c3cccs3)[nH]c2=O)c1 [BRI-12475]
4 | 66.7 | 96.9 | – | – | – | – | O=C(O)CSc1nc2ccccc2c2nc(CCc3ccccc3)nn12 [BRI-12314]
5 | 89.1 | 64.6 | – | – | – | – | COc1cccc(CC(=O)N[C@H]2[C@@H]3CC[C@@H](C3)[C@H]2C(=O)O)c1Cl [BRI-12468]
6 | 47.3 | 57.2 | ≥ 50 | 46 ± 15 | ≥ 50 | 21 ± 8 | Cc1cc(O)c(C(=O)O)cc1S(=O)(=O)Nc1ccc(N2CCCC2)c(F)c1 [BRI-12334]
7 | 91.4 | 63.4 | – | – | – | – | O=C(O)CCC(NC(=O)c1cccc(C(F)(F)F)c1)c1ccccc1 (stereo not shown) [BRI-12412]
8 | 74.5 | 51.7 | – | – | – | – | O=C(O)CNC(=O)c1ccc(NC(=O)CCn2cccc2)cc1 [BRI-12442]
9 | 83.9 | 73.5 | – | – | – | – | O=C(O)CC(NS(=O)(=O)Cc1cccc2cccnc12)c1cnn(-c2ccccc2)c1 (stereo not shown) [BRI-12460]
10 | 74.9 | 60.6 | – | – | – | – | COC[C@@H](C)n1c(-c2ccc3[nH]c(=O)oc3c2)csc1=Nc1ccc(C(N)=O)cc1 [BRI-12477]
11 | 118 | 106 | – | – | – | – | Cc1sc(NC(=O)C(C)(CC(=O)O)C2CCCCC2)c(C(N)=O)c1-c1ccccc1 (stereo not shown) [BRI-12474]
12 | 81 | 58.6 | – | – | – | – | CCc1ccc(CN(C)S(=O)(=O)c2[nH]ncc2C(=O)O)cc1 [BRI-12470]
13 | 71.7 | 81.2 | – | – | – | – | CC(Sc1n[nH]c(=O)n1C1CC1)C(=O)c1c[nH]c2ccccc12 (stereo not shown) [BRI-12342]
14 | 84.2 | 79.8 | – | – | – | – | Cc1onc(N)c1S(=O)(=O)Nc1ccc(N2CCCC2)cc1C(=O)O [BRI-12425]
15 | 77.4 | 87.2 | – | – | – | – | O=C(Nc1ccc2c(c1)COC2)N1CCCCC1c1cn[nH]c1 (stereo not shown) [BRI-12312]
16 | 96.3 | 65.2 | – | – | – | – | O=C(O)CN(CC(=O)O)S(=O)(=O)Cc1cc(Cl)cc(Cl)c1 [BRI-12456]
17 | 79.7 | 104 | – | – | – | – | CC(Sc1nnc(-c2c[nH]c3ccccc23)n1C1CC1)C(=O)NC(N)=O (stereo not shown) [BRI-12347]
18 | 78.7 | 42.4 | – | – | ≥ 50 | 15 ± 13 | O=C(O)COc1cccc(CNC(=O)c2cnc(-c3ncccn3)s2)c1 [BRI-12427]
19 | 89.5 | 35.6 | – | – | ≥ 50 | 19 ± 15 | O=C(Nc1cnc2[nH]ccc2c1)c1cnc2c(c1)c(=O)[nH]c(=O)n2Cc1ccccc1 [BRI-12401]
20 | 87.4 | 70 | – | – | – | – | O=C(O)CCC1CCCCN1C(=O)C1CCc2ncncc2C1 (stereo not shown) [BRI-12302]
21 | 72.3 | 68 | – | – | – | – | O=C(O)CNS(=O)(=O)c1cccc(NC(=O)c2ccc(C3CCC3)cc2)c1 [BRI-12429]
22 | 77.6 | 69.1 | – | – | – | – | O=C(c1cc(C(F)(F)F)n[nH]1)N1CCC2(C1)CN(C(=O)[C@@H]1C[C@H]1c1cccnc1)C2 [BRI-12459]
23 | 79.3 | 71 | – | – | – | – | C[S+]([O-])Cc1cccc(NC(=O)CC2(C(=O)O)Cc3ccccc3C2)c1 (stereo not shown) [BRI-12326]

Row | remaining activity at 30 µM [1] [%] | remaining activity at 30 µM [2] [%] | inhibition at 30 µM ([1]; HEK293, compound 30 µM, LTD4 at EC80, HEK293, wild-type CysLT1R, read-out: inhibition of LTD4-induced IP1 production, single-concentration screen) [%] | Emax ([1]; HEK293, read-out: CysLT1R (LTD4) % Max Inhibition ± SEM) [%] | inhibition at 30 µM [2] [%] | Emax [2] [%] | SMILES
24 | 81 | 76.9 | – | – | – | – | COc1ccc(N(CCC(=O)O)S(=O)(=O)c2csc(-c3ccc(F)cc3)n2)cc1 [BRI-12432]
25 | 87.6 | 58.4 | – | – | – | – | COc1ccccc1C(=O)NCC1CN(C(=O)c2ccc3[nH]c(=O)n(C)c3c2)C1 [BRI-12461]
26 | 95.2 | 75 | – | – | – | – | O=C(O)CNC(=O)c1ccc(NC(=O)c2cnc3ccccc3c2)cc1 [BRI-12440]
27 | 96.7 | 91.2 | – | – | – | – | O=C(c1ccc2nnnn2c1)N1CC=C(c2c[nH]c3ccccc23)CC1 [BRI-12332]
28 | 84.7 | 59.9 | – | – | – | – | O=C(O)CCNC(=O)c1nccnc1C(=O)Nc1ccc(Cl)cc1 [BRI-12465]
29 | 72 | 91.3 | – | – | – | – | Cn1c(Cn2cc(-c3nnco3)ccc2=O)nc2cc(Cl)ccc21 [BRI-12337]
30 | 80 | 49.5 | – | – | ≥ 50 | 5 ± 6 | O=C(O)CNC(=O)c1ccc(S(=O)(=O)Nc2ccc3sncc3c2)cc1 [BRI-12413]
31 | 66.6 | 90.6 | – | – | – | – | O=C(NCC(F)(F)F)c1cccc(NC(=O)C2C3C=CC(C3)C2C(=O)O)c1 (stereo not shown) [BRI-12346]
32 | 70.8 | 80.4 | – | – | – | – | O=C1COc2cc(C(=O)N3CCC(c4cc5ccccc5[nH]4)CC3)c(Cl)cc2N1 [BRI-12416]
33 | 85.5 | 52.9 | – | – | – | – | NC(=O)Nc1ccc(C(=O)NCc2c(C(=O)O)oc3ccccc23)cc1 [BRI-12447]
34 | 82.6 | 57.3 | – | – | – | – | O=C(O)CC(CNS(=O)(=O)c1ccc(Oc2ccc(Cl)cc2)cc1)C(=O)O (stereo not shown) [BRI-12421]
35 | 68.4 | 79.8 | – | – | – | – | Cc1cccc(-c2nnc(SCc3ccc(C(N)=O)cc3)n2CC(=O)O)c1 [BRI-12350]
36 | 77 | 65.7 | – | – | – | – | COc1ccc(NC(=O)CN(C)C(=O)c2ccccc2-n2cnnn2)cc1 [BRI-12357]
37 | 93.9 | 67.5 | – | – | – | – | O=C(O)C1CN(C(=O)Nc2cc(Br)ccn2)CCO1 (stereo not shown) [BRI-12436]
38 | 68.5 | 73.4 | – | – | – | – | Cn1cc(C(N)=O)c(NC(=O)CCc2cccc(C(F)(F)F)c2)n1 [BRI-12327]
39 | 76.8 | 91.8 | – | – | – | – | c1ccc(C(CNc2ccc3nnnn3n2)c2c[nH]c3ccccc23)cc1 (stereo not shown) [BRI-12355]
40 | 73.7 | 88.9 | – | – | – | – | CC(=O)c1cc2c(cc1NC(=O)COc1ccc(Cl)cc1C(N)=O)OCO2 [BRI-12343]
41 | 84.6 | 110 | – | – | – | – | O=C(Nc1ccccc1C(=O)N1CCN2C(=O)NC(=O)C2C1)c1cccs1 (stereo not shown) [BRI-12307]
42 | 76.4 | 78.4 | – | – | – | – | CC(=O)c1ccc(OCC(=O)NC(CC(=O)O)c2cccs2)cc1 (stereo not shown) [BRI-12319]
43 | 91.9 | 80.5 | – | – | – | – | Cc1ccc(C(NS(=O)(=O)c2ccc(C(=O)NCC(=O)O)cc2)c2ccccn2)cc1 (stereo not shown) [BRI-12437]
44 | 80.5 | 100 | – | – | – | – | O=C(O)CNC(=O)c1ccc(NS(=O)(=O)c2cccs2)cc1 [BRI-12323]
45 | 88.2 | 50.7 | – | – | – | – | O=C(O)Cn1ccc(NC(=O)CNC(=O)Cc2cccc(F)c2)n1 [BRI-12471]
